According to patent US9322034B2, “Compositions and methods for detecting and modulating cell death by a translation regulated gene expression system” (Wayne State University, priority 2007, dated 2016):

Tests used:
Assay type in all cases: cell-based, human
[1] = tested on: HEK293 TRplp-fLUC and TRdm-fLUC subclones; assay: Cytotoxicity assay by immunofluorescence of fLUC protein; settings: 12 hr
Source text: To examine TR-mediated translation from the TR-fLUC cassettes, the translated fLUC protein requires immunolabeling with fluorescent antibodies. In this study, HEK293 cells transformed with the CMV-fLUC, TRplp-fLUC or TRdm-fLUC expression cassettes are visualized following immunodetection of the fLUC protein using a primary anti-fLUC antibody (Sigma) and a species-specific rhodamine-labeled secondary antibody (Kirkegaard and Perry Laboratories, Inc.). DAPI labeling of nuclear DNA is a well known procedure in the art and was used to label nuclei.
Forty hours prior to toxin exposure, 300,000 cells (HEK293, HEK293 CMV-fLUC, HEK293 TRplp-fLUC subclone #3, HEK293 TRplp-fLUC subclone #17, HEK293 TRdm-fLUC subclone #12, or HEK293 TRdm, fLUC subclone #45) were plated on flame sterilized glass coverslips in a 12-well tray. Cells are cultured in complete DMEM medium. Fresh medium supplemented with 6.7 micromolar calcium ionophore A23187 is applied and slides collected at 12 hr. […] After this, the coverslips are washed in 1×PBS, labeled with DAPI (30 sec, RT), washed in 1×PBS, and mounted for fluorescence microscopy.
In untreated cell cultures, the frequency of fLUC-positive cells ranged from 2.4-7.2%, which is 1-3 times higher than the normal frequency of nonviable cells, as determined by Trypan blue staining. […]

[2] = tested on: HEK293 cells; assay: Trypan blue staining of HEK293 cells treated with toxic agents; settings: 5-6.7 micromolar, within 24 hr
[3] = tested on: HEK293 TRplp-EYFP and TRplp-fLUC colonies; assay: Microplate reader screen at fixed time and toxin concentration; settings: 12 hr
Protocol: For this example, HEK293 cells expressing the TRplp-EYFP, TRdm-EYFP, TRplp fLUC and TRdm-fLUC expression cassettes are evaluated using a microplate reader. To quantitate the TR translational response, 24,000 cells are plated in a 96-well microtiter plates and allowed to grow for about 40 hr to achieve the proper cell density prior to incubation with a toxic agent. Each well is cultured with complete DMEM medium containing either no toxin or a defined concentration of toxin and incubated at 37 C for specific time periods. At that time, fluorescence or chemiluminescence on a FLUOstar Optima (BMG Labtech) microplate reader is used measure TR-ORF response.
Direct detection of the spontaneously fluorescent EYFP protein fluorophore is achieved by excitation of samples in black optical bottom 96-well trays with a fluorescein filter (545 nm) or a YFP filter (YFPex) and emission measured at 590 nm or 544 nm using gains of 1000-2000. To reduce the background fluorescence associated with media components, the trays are centrifuged at 1200 rpm, RT for 3 min to collect any floating cells, and the media replaced with 200 microliters of 1×PBS prior to detection. For the fLUC protein, protein activity is quantified by luminescence produced during live cell or lysed cell luciferase assays. […] Luminescence was detected using lens filter at gains of 2000-3000. […]

CNc1ccc2oc(C[C@H]3O[C@@]4(CC[C@H]3C)O[C@H]([C@H](C)C(=O)c3ccc[nH]3)[C@H](C)C[C@H]4C)nc2c1C(=O)O [calcium ionophore A23187]
increase in number of fLUC positive cells compared to untreated samples ([1]; HEK293 TRdm-fLUC subclone #12, 6.7 micromolar): 3640%
increase in number of fLUC positive cells compared to untreated samples ([1]; HEK293 TRdm-fLUC subclone #45, 6.7 micromolar): 1440%
cell death in HEK293 cells as determined by Trypan blue staining [2]: complete cell death
TR response in screening assay ([3]; HEK293 TRplp-EYFP subclone #41, 6.7 micromolar): significant TR responses
TR response in screening assay ([3]; HEK293 TRplp-fLUC subclone #3, 6.7 micromolar, live cell assay): significant TR responses
